Measurements from patent publication US20050288283A1, “Topical formulations for treating allergic diseases” (Alcon, Inc., priority 2004, published 2005).
pIC50: −log10 of the molar value. Where a name gives a salt, the structure may show the parent alone.

Assays:
[1] = test system: Histamine induced vascular permeability in guinea pig conjunctiva; assay: Histamine induced vascular permeability in guinea pig conjunctiva; type: in vivo; conditions: topical 20 μl onto eye, 30 min before subconjunctival histamine
Procedure: Male Dunkin Hartley Viral Antibody Free out bread guinea pigs (Charles River Labs, Portage, Mich.), 250-350 grams, (6/group) were injected intravenously (i.v.) via the marginal ear vein with 1.0 ml of Evans Blue dye (1.0 mg/ml). Forty-five (45) min post dye injection, 20 μl of test compound or vehicle was applied topically onto one eye of each experimental animal. Thirty (30) min following topical drug application, guinea pigs were anesthetized and challenged subconjunctivally with histamine (300 ng/10 μl). Responses were quantitated as previously described by Yanni, J. M., Weimer, L. K., Glaser, R. K., Lang, L. S., Robertson, S. M., and Spellman, J. M. Int. Arch. Allergy Immunol. 101:102-106, 1993

[2] = test system: human conjunctival tissue mast cells; assay: Histamine release from human conjunctival mast cells (anti-human IgE challenge); type: cell-based; conditions: Mast cell; goat-anti-human IgE 10 μg/mL challenge 15 min, after 1 or 15 minutes drug treatment; read-out: Human Conjunctiva Mast Cell Histamine Release IC50
Procedure: Methods detailing preparation of monodispersed human conjunctival tissue mast cell and mediator release studies with these cells have been described (Miller et al. 1996). Briefly, human conjunctival tissue mast cells were isolated from post-mortem tissue donors obtained within 8 hours of death by various eye banks and transported in Optisol® corneal preservation medium. Tissues were enzymatically digested by repeated exposure (30 min. at 37° C.) to collagenase and hyaluronidase (2× with 200 U each/gm tissue, then 2-4× with 2000 U each/gm tissue) in Tyrode's buffer containing 0.1% gelatin. Each digestion mixture was filtered over Nitex® cloth (100 μm mesh) and washed with an equal volume of buffer. Filtrates were centrifuged at 825×g (7 min). Pellets were resuspended in buffer then combined for enrichment over a […] Percoll® cushion. The enriched pellet was washed and resuspended in supplemented RPMI 1640 medium for equilibration at 37° C.
Cells were harvested from the culture plate and counted for viability (trypan blue exclusion) and mast cell number (toluidine blue 0). Mast cells (5000/tube; 1 mL final volume) were challenged (37° C.) for 15 min with goat-anti-human IgE (10 μg/mL) following treatment (1 or 15 minutes; 37° C.) with test drug or Tyrode's buffer. Total and non-specific release controls were exposed to 0.1% Triton X-100 and goat IgG (10 μg/mL), respectively. The reaction was terminated by centrifugation (500×g, 4° C., 10 min). Supernatants were stored at −20° C. until analyzed for histamine content by R I A Miller, S. et al., Ocular Immunology and Inflammation 4(1): 39-49 (1996).

[3] = target: T1, H1 histamine receptor (Cavia porcellus, UniProt P31389); assay: Histamine receptor radioligand binding in washed rodent brain homogenates ([3H]pyrilamine); parameters: species or system guinea pig; conditions: 23° C. for 40 min
T1 construct: tissue Pel-Freez (Rogers, Ark.); host or cells: guinea pig forebrain homogenate (washed membranes)
T1 sequence (P31389 whole entry): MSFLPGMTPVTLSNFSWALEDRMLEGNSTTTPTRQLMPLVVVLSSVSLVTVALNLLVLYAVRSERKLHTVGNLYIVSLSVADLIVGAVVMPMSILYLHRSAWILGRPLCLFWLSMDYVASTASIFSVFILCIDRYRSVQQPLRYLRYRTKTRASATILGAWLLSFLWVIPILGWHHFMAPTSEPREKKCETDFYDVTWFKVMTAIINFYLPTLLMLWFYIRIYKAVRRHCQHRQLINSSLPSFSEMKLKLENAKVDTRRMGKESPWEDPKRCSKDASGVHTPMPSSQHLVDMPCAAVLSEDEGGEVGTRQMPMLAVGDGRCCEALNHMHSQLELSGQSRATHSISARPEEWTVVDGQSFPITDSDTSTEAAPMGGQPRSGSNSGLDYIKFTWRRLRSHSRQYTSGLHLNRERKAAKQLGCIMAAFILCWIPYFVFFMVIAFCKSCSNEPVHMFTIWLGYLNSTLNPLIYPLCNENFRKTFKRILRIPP
Procedure: Histamine receptor binding was conducted in washed rodent brain homogenates. Briefly, guinea pig forebrains (for H1 and H2 receptors) and rat forebrains (for H3 receptor), obtained from Pel-Freez (Rogers, Ark.) were homogenized in 20 ml ice-cold phosphate buffered saline (PBS; pH 7.4) using a Polytron tissue disrupter (setting 5-7 for 10 sec) and centrifuged at 40,000 g for 15 min on a Beckman J2-MC centrifuge. The supernatants were discarded, the tissue pellets re-homogenized in fresh PBS buffer and centrifuged as described above. The final pellets were dispersed in 50 mM sodium potassium phosphate buffer (pH 7.5) and kept frozen at −40° C. until used in the binding assays.
The H1 histamine receptor binding assays were performed according to previously published methods with minor modifications (Chang, R. S. L., Tran, V. T., and Snyder, S. H. J. Neurochem., 32:1653-1663, 1979, Hill, S. J., Young, J. M., and Marrian, D. H. Nature, 270:361-363, 1977, Gajtkowski, G. A., Norris, D. B., Rising, T. J., and Wood, T. P. Nature, 304:65-67,1983, Korte, A., Myers, J., Shih, N.-Y., Egan, R. W., and Clark, M. A. Biochem. Biophys. Res. Comm., 168:979-986, 1990 . Briefly, 50 μl of [3H]pyrilamine (1-2 nM); 24 Ci/mmol from NEN, Boston, Mass.), [3H]tiotidine (4-5 nM; 87 Ci/mmol from NEN, Boston, Mass.) or [3H]N-methyl histamine (1-2 nM; 84 Ci/mmol from NEN, Boston, Mass.) were incubated with 200 μl of 2.5-4.0 mg/ml of frozen-thawed brain homogenates in the presence or absence of unlabeled test compounds (50 μl; 10 pM-100 μM) in a total volume of 500 μl in polypropylene tubes. The non-specific binding was determined with 5 mM histamine. Drug dilutions and dispensing of assay components were performed using a computer-controlled automated system (Biomek; Beckman, Fullerton, Calif.). The assays were conducted at 23° C. for 40 min and then terminated by rapid filtration over Whatman GF/B glass fiber filters presoaked in 0.3% polyethyleneimine using a Tomtec cell harvester (Gaithersburg, Md.). The assay tubes were rinsed with 2×6 ml of ice-cold 50 mM TrisHCl buffer (pH 7.4). The filter-bound radioactivity was determined on a Wallac Beta-plate (Gaithersburg, Md.) solid scintillation counter at 40-50% efficiency. The competition binding data were analyzed using an iterative curve-fitting computer program as previously described Michel, A. D. and Whiting, R. L. Brit. J. Pharmacol., 83:460p, 1984, Sharif, N. A., Wong, E. H. F., Loury, D., Stefanich, E., Eglen, R. M., Michel, A. D., and Whiting, R. L. Brit. J. Pharmacol., 102:919-925, 1991,. The drug affinities (dissociation constants, Kis) were calculated according to the Cheng-Prussof equation (Cheng, Y.-C. and Prusoff, W. H. Biochem. Pharmacol., 22:3099-3018, 1973 ): Ki=IC50/(1+L/Kd) where IC50 is the concentration of the drug needed to produce 50% inhibition of the receptor binding, L is the radioligand concentration in the assay and Kd is the dissociation constant of the radioligand.

[4] = % inhibition at concentration 0.01%
[5] = % inhibition at concentration 0.1%

SMILES	pIC50 [2]	pIC50 [3]	also measured
CN(C)CC/C=C1/c2ccccc2COc2ccc(CC(N)=O)cc21 [Example 3, 2-[11Z-(3-Dimethylaminopropylidene)-6,11-dihydrodibenzo[b,e]oxepin-2-yl]acetamide]	3.32	8.66	Histamine Induced Vascular Permeability ED50 or [Concentration] and (% inhibition) ([1]; % inhibition at concentration printed as 0.018 (no % sign)): 0.018 (59%)
CN(C)CC/C=C1/c2ccccc2COc2ccc(CC(=O)NC[C@@H]3CCCO3)cc21 [Example 1, (S)-2-{11-[3-Dimethylamino-prop-(Z)-ylidene]-6,11-dihydro-dibenz[b,e]-oxepin-2-yl}-N-tetrahydro-furan-2-ylmethyl)acetamide fumaric acid salt]	4.21	–	–
CN(C)CC/C=C1/c2ccccc2COc2ccc(CC(=O)N(C)C)cc21 [Example 6, 2-[11Z-(3-Dimethylaminopropylidene)-6,11-dihydrodibenzo[b,e]oxepin-2-yl]-N,N-dimethylacetamide]	3.40	8.59	Histamine Induced Vascular Permeability ED50 or [Concentration] and (% inhibition) [1, 4]: 0.01% (56%)
CN(C)CC/C=C1/c2ccccc2COc2ccc(CCN)cc21 [Example 8, {3-[2-(2-Aminoethyl)-6H-dibenzo[b,e]oxepin-11-ylidene]propyl}-dimethylamine]	5.70	–	Histamine Induced Vascular Permeability ED50 or [Concentration] and (% inhibition) [1, 5]: 0.1% (32%)
CN(C)CC/C=C1/c2ccccc2COc2ccc(CC(=O)NCCO)cc21 [Example 5, 2-[11Z-(3-Dimethylaminopropylidene)-6,11-dihydrodibenzo[b,e]oxepin-2-yl]-N-(2-hydroxyethyl)acetamide]	3.11	8.89	Histamine Induced Vascular Permeability ED50 or [Concentration] and (% inhibition) [1, 4]: 0.01% (43%)
CN1CCC(=C2c3ccccc3COc3ccc(OCC(=O)O)cc32)CC1 [Example 11, [11-(1-Methylpiperidin-4-ylidene)-6,11-dihydrodibenzo[b,e]oxepin-2-yloxy]acetic acid hydrochloride]	3.66	–	–
CN(C)CC/C=C1/c2ccccc2COc2ccc(CCNS(C)(=O)=O)cc21 [Example 9, N-{2-[11-(3-Dimethylaminoprop-(Z)-ylidene)-6,11-dihydrodibenzo[b,e]-oxepin-2-yl]ethyl}-methanesulfonamide]	4.82	6.90	Histamine Induced Vascular Permeability ED50 or [Concentration] and (% inhibition) ([1]; % inhibition at concentration 0.018%): 0.018% (74%)
CNC(=O)Cc1ccc2c(c1)/C(=C\CCN(C)C)c1ccccc1CO2 [Example 4, 2-[11Z-(3-Dimethylaminopropylidene)-6,11-dihydrodibenzo[b,e]oxepin-2-yl]-N-methylacetamide]	3.66	8.59	Histamine Induced Vascular Permeability ED50 or [Concentration] and (% inhibition) [1, 5]: 0.1% (55%)
CCN(CC)CCC1CCN(C(=O)Cc2ccc3c(c2)/C(=C\CCN(C)C)c2ccccc2CO3)CC1 [Example 2, 1-[4-(2-Diethylamino-ethyl)-piperidin-1-yl]-2-{11-[3-dimethylamino-prop-(Z)-ylidene]-6,11-dihydro-dibenz[b,e]oxepin-2-yl}-ethanone fumaric acid salt]	5.70	–	–
CCN(CC)CCC1CCN(CCc2ccc3c(c2)/C(=C\CCN(C)C)c2ccccc2CO3)CC1 (as salt: fumaric acid salt) [Example 7, {3-[2-{2-[4-(2-Diethylamino-ethyl)-piperidin-1-yl]-ethyl}-6H-6,11-dibenz[b,e]oxepin-(11Z)-ylidene]-propyl}-dimethylamine fumaric acid salt]	–	–	melting point: 65 to 67 °C
CC(=O)NCCc1ccc2c(c1)/C(=C\CCN(C)C)c1ccccc1CO2 [Example 10, N-[2-[11-(3-Dimethylaminoprop-(Z)-ylidene)-6,11-dihydrodibenzo[b,e]-oxepin-2-yl]ethyl}-acetamide]	4.89	7.27	Histamine Induced Vascular Permeability ED50 or [Concentration] and (% inhibition) [1, 5]: 0.1% (41%)
